The source of these data is patent US20170176446A1, “Methods for Determining the Oncogenic Condition of Cell, Uses Thereof, and Methods for Treating Cancer” (INSERM (INSTITUT NATIONAL DE LA SANTE ET DE LA RECHERCHE …, priority 2009, published 2017).

The IC50 is the concentration that inhibits the measured activity by half. One may read the Ki as the equilibrium dissociation constant of an inhibitor or competing ligand from its target.

The subject of assay [1] is OCDO. The experiment in a line: OCDO content of TS/A tumors by GC/MS. Conditions: DDA 10 μM, 100 μl intratumorally once a day. In kind it is in vivo, mice. As to the method: 5 volumes (relative to the mass removed) of buffer (50 mM Tris-HCl, 150 mM KCl, pH=7.4) are added. The tumors are ground and the homogenates are centrifuged for 5 minutes at 2500 rpm at 4° C. […] After centrifugation (to separate the phases), the organic phase is recovered. The organic phase is evaporated to dryness and then the residue is taken up with 0.5 ml of chloroform. The organic extracts are filtered on 0.5 ml silica cartridges. The polar sterols are eluted sequentially:
1) 0.5 ml of a hexane/chloroform mixture (1/1), 2) 0.5 ml of chloroform, 3) 0.5 ml of ethyl acetate and methanol.
The ethyl acetate fractions are evaporated, silylated (50 μl 1/1 acetonitrile/BSTFA) and then analyzed by GC/MS (2 μl) according to the conditions described above.

The target of assay [2] is T1, ChEH (Homo sapiens, UniProt Q15125).
T1 construct: MCF7 tumor cells, which originate from the American Tissue Culture Collection (ATCC), were used; host or cells: MCF7
The experiment in a line: ChEH activity on MCF7 cell lysate (homogenate). In kind it is biochemical. Conditions: 150 μg of proteins, read-out: (IC50)homogenate, ChEH inhibition. The protocol:
Moreover, a study of this inhibition on homogenate was also carried out. The protocol is as follows: the MCF7 cells are detached with trypsin and taken up with RPMI medium containing 5% FBS. The cell suspension obtained (60 million cells) is centrifuged, washed with cold PBS and resuspended in 1 ml of […] buffer (pH=7.4; 150 mM KCl). The cells are lyzed by means of five freezing/thawing (liquid nitrogen/37° C.) cycles. The solution is centrifuged at 1200 rpm at 4° C. for 10 minutes. The supernatant is recovered and the amount of proteins is determined by the Bradford method. The measurement of the ChEH activity on MCF7 cell lysate is carried out as follows: the enzymatic activity is measured on 150 μg of proteins in a final volume of 150 μl containing […] of ChEH buffer (Tris-HCl, pH 7.4, 150 mM KCl) and 15 μl of MCF7 proteins.

In assay [3] the target is T1, ChEH. The experiment in a line: Inhibition of ChEH activity in MCF7 cells (TLC of [14C]CE conversion). In kind it is cell-based. Conditions: 48 hours, MCF7 cells. The protocol: For this experiment, an aminoalkyl sterol included in French patent 2 838 741 (and also see: de Medina et al., J Med Chem: 2009, vol. 52, No. 23, p. 7765-7777), having the formula: 6-N-[2-(3H-imidazol-4-yl)ethylamino]cholestane-3β,5α-diol (DDA), was chosen. […]
A thin-layer chromatography was carried out, the plate of which has been reproduced in FIG. 23. On this plate, the incubation is carried out, for lane 1, with [^14C]CE; for lane 2, with [^14C]CT; for lane 3, with the vehicle solvent, which is the same as that used for assays 1 to 5; for lane 4, with [14C]CE and 0.1 μM of the aminoalkyl sterol; and for lane 5, with [^14C]CE and a concentration of 1 μM of the aminoalkyl sterol.

In assay [4] the test system is MCF7 cells. The experiment in a line: OCDO production by MCF7 cells incubated with [14C]CE, thin-layer chromatography. In kind it is cell-based, human. Particulars: concentration in μM in parentheses after each molecule; control = 100. The text has this:
For assays 1 to 5 and in some of the examples given later in this patent application, MCF7 tumor cells, which originate from the American Tissue Culture Collection (ATCC), were used. […] It is desired to study the activity of ChEH in […] cells by silica thin-layer chromatography. The compounds that it is desired to visualize are the CE and CT compounds defined above. In order to visualize the spots corresponding to CE and CT on a chromatography plate, ^14C-labeled CE and CT compounds were synthesized.
In order to be used in assays 1 to 5 which follow, the cells are seeded into 6-well plates at a density of 80 000 cells in a volume of 2 ml. […] After the incubation time desired for the assay, the medium is collected, the cells are washed with cold PBS (phosphate buffer) (2 ml per well) which is pooled with the medium. The cells are then scraped into cold PBS (1 ml for 3 wells); the wells are again rinsed with cold PBS (1 ml for 3 wells). The cell suspension obtained is centrifuged at 1000 rpm for 5 min at 4° C. […] Throughout the rest of this description, the vehicle solvent used is the same as that defined above.
The aqueous and organic radioactivities are counted. The organic phases are brought to dryness under argon. The residue is resuspended in 60 μl of ethanol and then deposited, in a proportion of 20 μl per lane, on to the glass-backed silica plates (Whatman LK-6-DF, 20×20), which are used in the various assays (these plates having been preheated at 100° C. for 1 hour). The migration solvent used is ethyl acetate. The chromatography plates are placed in contact with a “phosphor-screen” plate in a cassette overnight. […] In order to evaluate the more or less dense nature of the spots obtained on the plates, the radioactivity is quantified by densitometry with the “Imagequant”™ computer program.
Generally, in order to establish the percentages of OCDO inhibition from the thin-layer chromatography (TLC) plates obtained as in assay 2, the radioactive metabolites are identified and quantified on the basis of said plates using a europium-sensitive plate of GP Phosphor screen type (GE Healthcare) and a Storm 840 phosphorimagor (GE Healthcare). The proportion of radiolabeled oxysterols is determined on the autoradiogram obtained by densitometry using the Image Quant 5.2 software. The percentage is calculated on the basis of the ratio between the amount of oxysterols quantified divided by the sum of the amounts of oxysterols (CEE+CE+CT+OCDO). Since the CEE (CE ester) originates exclusively from the CE, the percentage CE is calculated on the basis of the ratio (CE+CEE)/(CE+CEE+CT+OCDO).
Assay 2 given above was therefore completed by measuring the amounts of the products present when the MCF7 tumor cells are incubated as indicated in detail in assay 2.
In order to establish that the link that exists between, on the one hand, the ability of various compounds to inhibit OCDO in an MCF7 tumor cell and, on the other hand, their quality as a ChEH inhibitor, is well-founded, the inhibition coefficients Ki for ChEH relating to a certain number of products was calculated and the production of OCDO by MCF7 cells after incubation of the cells with the same products was measured according to the protocol defined in assay 2 of the present patent application.

The test system of assay [5] is TS/A cells. The experiment in a line: Tumor size of TS/A tumors implanted in BALB/c mice, intratumoral treatment. In kind it is in vivo. Particulars: DDA 10 μM, 100 μl intratumorally once a day. The protocol:
A cell culture of TS/A cells was first performed. These TS/A cells are mouse mammary adenocarcinomas (see Nanni P et al., Clin. Exp. Metastasis, 1983 October-December; 1(4): 373-80). The cells are cultured, at 37° C. under 5% CO2, in a DMEM medium supplemented with 2 g/liter of sodium carbonate, 1.2 mM of glutamine (pH 7.4 at 23° C.), 5% of fetal bovine serum (Gibco) and 2.5 ml of antibiotics per liter of medium (penicillin/streptomycin).
The TS/A cells are recovered with trypsin, washed twice and suspended in PBS buffer. The TS/A cells (approximately 4×10^6 […] cells/0.1 ml) are then injected subcutaneously into the flank of 6-week-old female BALB/c mice (supplied by Charles River). […] The animals (10 mice per group) are monitored regularly for tumor development. The volume of the tumors is calculated according to the following formula: L×l^2×0.5 (L is the length and l is the width of the tumor). The experiment was reproduced twice. The results are given in FIG. 18 (the arrow indicates the beginning of the treatment).

The target in assay [6] is T2, ChEH (Rattus norvegicus, UniProt Q9JJ46).
T2 construct: 150 μg of rat liver microsome proteins are incubated; from tissue; host or cells: rat liver microsomes
T2 sequence (Q9JJ46 1-230): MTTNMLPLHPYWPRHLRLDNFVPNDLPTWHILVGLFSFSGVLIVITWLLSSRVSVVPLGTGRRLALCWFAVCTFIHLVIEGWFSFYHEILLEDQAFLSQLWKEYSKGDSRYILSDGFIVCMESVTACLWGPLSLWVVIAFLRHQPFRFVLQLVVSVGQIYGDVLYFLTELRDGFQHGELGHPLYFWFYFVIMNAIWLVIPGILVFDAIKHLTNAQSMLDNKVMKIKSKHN
The experiment in a line: Determination of the Ki for ChEH on rat liver microsome proteins (Dixon method). In kind it is biochemical. Conditions: 150 μg rat liver microsome proteins, [14C]CEα.

T1 sequence (Q15125 whole entry): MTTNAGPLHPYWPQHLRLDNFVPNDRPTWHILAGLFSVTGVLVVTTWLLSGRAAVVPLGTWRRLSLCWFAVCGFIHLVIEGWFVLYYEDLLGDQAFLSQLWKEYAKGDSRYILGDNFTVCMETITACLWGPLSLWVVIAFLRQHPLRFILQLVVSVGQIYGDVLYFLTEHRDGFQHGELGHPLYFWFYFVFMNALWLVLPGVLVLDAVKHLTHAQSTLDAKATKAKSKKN

In the case of `CC(C)CCC[C@@H](C)[C@H]1CC[C@H]2[C@@H]3C[C@@H](NCCc4c[nH]cn4)[C@@]4(O)C[C@@H](O)CC[C@]4(C)[C@H]3CC[C@]12C` [DDA, 6-N-[2-(3H-imidazol-4-yl)ethylamino]cholestane-3β,5α-diol], the “OCDO (% control)” value in assay [1] (Day 28) was determined as 14.5 ± 3 % control; in assay [1] (Day 37) it was 4.5 ± 3 % control. In addition, the IC50 in assay [2] stood at 11200 nM; in assay [3] ([14C]CE 0.6 μM) it was 600 nM. Besides, the “inhibition of ChEH” value in assay [3] (0.1 and 1 μM, dependent on the concentration) is recorded as “causes an inhibition of ChEH”. Moreover, the “OCDO production by MCF-7 (% control)” value in assay [4] was below 1 % control. Moreover, the entries for the “Tumor size (% control)” value in assay [5] (Day 28) and in assay [5] (Day 37) were 65.4 ± 7 % control and 28.3 ± 8 % control, respectively. In assay [6], this compound registered a Ki of 1250 ± 6 nM.
